Patent US8580776B2, “Compositions and methods for treating neurodegenerating diseases” (The Board of Trustees of the University of Illinois, priority 2007, dated 2013)
“Also recorded” adds a separate entry of the source.

How the values were obtained:
BMP4 = assay: QPCR of BMP4 mRNA in primary astrocytes; format: cell-based
Procedure: (§1) As shown in FIGS. 12C and 12D, BMP2 and BMP4 mRNA levels were decreased in astrocytes treated with NA. Data is mean±sd of n=2-3 experiments, and normalized to values for β-tubulin measured in the same samples.
(§2) Further studies were carried out in which primary astrocytes were treated with 30 μM NA for 24 hours then mRNA levels of bone morphogenic proteins BMP2 and BMP4, Noggin, Gremlin, Follistatin and BAMBI were measured by QPCR (FIG. 16A). The results confirmed that BMP4 mRNA levels were decreased, whereas the Noggin mRNA levels were increased, in NA treated primary astrocytes (FIG. 16A).

[1] = system: oligodendrocyte progenitor cells (OPCs); assay: Oligosphere / OPC maturation by immunostaining; format: cell-based, mouse
Procedure: Initial studies were carried out to identify treatments that influence OLG maturation using primary oligodendrocyte progenitor cells (OPCs) from E13 mouse pups. The cells were isolated as E13 neurospheres, and were shifted to OLG commitment (Oligospheres) by culture in PDGFα and bFGF. E13 Oligospheres were cultured on polylysine coated slides in media (containing bFGF and PDGFα) in the presence or absence of 25 μM NA. After 2 days the cells were fixed and stained with antibody to MBP (FIGS. 12A and 12B).
Further studies were carried out in which the oligospheres were cultured on polylysine coated slides in media (containing bFGF and PDGFα) in the presence or absence of 20 μM NA. After 24 hours the cells were fixed and stained with antibodies for PDGFRa, Oligodendrocyte Marker O4 and PLP (FIGS. 13 and 14).

BMP2 = assay: QPCR of BMP2 mRNA in primary astrocytes; format: cell-based; conditions: 100 μM NA, 24 hr
From the text: as §1

primary neurons = assay: Aβ-induced neuronal damage in primary neurons (LDH release, FJ staining); format: cell-based; conditions: LDH release and FJ staining
Procedure: The levels of neuronal damage, using LDH release as a neuronal damage marker, were measured as a percentage of control. C: control; Aβ: primary neurons treated with Aβ; Aβ+NA: primary neurons treated Aβ and NA; and Aβ+dbcAMP: primary neurons treated with Aβ and dbcAMP. […] The staining intensity was quantified as a percentage of control as illustrated in the graph in FIG. 9B.

primary microglia = assay: Microglial phagocytosis of FITC-labeled Aβ1-42 (FACS); format: cell-based, mouse; conditions: 10 nM to 10 μM, 4 hr, FITC-Aβ1-42 150 μM
Procedure: The ability of NA to modulate Aβ phagocytosis, another means by which amyloid plaque burden is regulated, was tested. Primary microglia were incubated with indicated concentrations of NA (FIG. 5A) or the β-AR agonist isoproterenol (FIG. 5B), in the presence of FITC-labeled Aβ1-42 (150 μM). After 4 hr, intracellular levels of Aβ were determined as described below.
Primary murine microglial cells were generated at P1 according to standard protocols. Briefly, frontal cortices of one day old C57BL6 mice were used to prepare mixed glial cultures in T75 cm^2 flasks in DMEM containing 10% FCS and antibiotics (100 IU/mL of penicillin and 100 ug/mL of streptomycin; Sigma), and incubated at 37° C. in a humidified atmosphere containing 5% CO2. Microglia were detached from the astrocyte monolayer by gentle shaking 11-13 days after the dissection, and cultures were 95-98% Mac1 positive.
FACS analysis was used to quantify microglial phagocytosis of Aβ1-42. […] Fluorescent signals due to cell adherent Aβ were eliminated by resuspending an aliquot of cells in an equal volume of 1 mg trypan blue/mL (Merck, Darmstadt, Germany) acetate buffer to quench extracellular fluorescence. The mean fluorescence intensity (MFI) was measured on a FACScan (Becton Dickinson, Mountain View, Calif.) equipped with an argon-ion laser (excitation wavelength at 488 nm, laser power 300 mW) and a band pass filter of 530 nm. […]

mouse neuronal N2A cells = assay: NEP activity in N2A cells incubated with NA; format: cell-based; conditions: N2A cells incubated with NA for 24 hr
Procedure: Comparative real time RT-PCR (or quantitative PCR, QPCR) was used to measure mRNA levels of the Aβ degrading enzymes neprilysin (Nep) and insulin degrading enzyme (IDE) in brain samples from vehicle and DSP4 treated mice (FIG. 4A). Neprilysin activity in brain extracts was assayed by monitoring proteolysis of a fluorescent substrate (FIG. 4B). To assess the effects of dose, mouse neuronal N2A cells were incubated with increasing does of NA for 24 hr after which NEP activity was measured (FIG. 4D, data is mean±sd and is from n=3 samples).
In the results shown in FIG. 4D, mouse neuronal N2A cells were incubated with NA for 24 hr after which NEP activity was measured. Data is mean±sd and is from n=3 samples.

P1 OPCs = assay: QPCR of myelin genes in P1 OPCs treated with NA; format: cell-based; conditions: NA versus saline
Procedure: Additional studies were carried out in which QPCR analysis was performed for BMPs, BMP antagonists and myelin genes on P1 OPCs treated with saline or NA. The QPCR condition and primers are as described in Example 3. For QPCR experiments, RNA levels were calculated from QPCR take-off points, normalized for RNA values obtained for GDH; the average value for the vehicle treated RNA levels was set to 1.0. Comparisons were made using unpaired T-test, and P values <0.05 were considered to be significant. (FIGS. 15A and 15B).

Noggin = Noggin mRNA (QPCR) and protein staining in primary astrocytes; format: cell-based
Procedure: as §2

EAE mice [2] = assay: L-DOPS treatment of EAE mice (Example 10); format: in vivo
Procedure: To test whether increased NA derived from the NA precursor L-DOPS could provide benefits in EAE, C57B16 mice were immunized with MOG35-55 peptide using standard procedures. At day 29 (FIG. 11A, arrow) after the booster MOG, 6 mice received daily injections of L-DOPS (using an intermediate dose of 200 mg/kg s.c.; plus 125 mg/kg bensazeride i.p. to block peripheral conversion to NA); control mice received saline. In the saline group, 4/6 mice were ill on day 29, and by day 36 all 6 were ill (FIG. 11A); the average clinical score increased from 1.3±0.4 (mean±se) on day 29 to 2.3±0.2 on day 37 (FIG. 11B). […] During treatment, scores of 2 of the 4 mice improved, and the average score decreased from 1.5±0.5 on day 29 to 1.2±0.4 on day 38.
(§3) To assess disease severity, clinical signs were scored as follows: 0 indicated no clinical signs, 1 indicated a limp tail, 2 indicated an impaired righting of the animal, 3 indicated paresis of one hind limb, 4 indicated paresis of two hind limbs, and 5 indicated the death of the animal.

EAE mice [3] = assay: L-DOPS, Atomoxetine and combination in EAE mice (Example 13); format: in vivo; conditions: from day 17 after booster MOG, tri-weekly, L-DOPS 400 mg/kg s.c. plus 125 mg/kg bensazeride i.p., Atomoxetine 20 mg/kg
From the text: as §3
To test whether increasing NA derived from the NA precursor L-DOPS in combination with a NA reuptake inhibitor could provide benefit in EAE, C57B16 mice were immunized with MOG35-55 peptide using standard procedures as described in Example 9.

With `NC[C@H](O)c1ccc(O)c(O)c1` [NA, noradrenaline] the “BMP4 mRNA levels” value (BMP4; 30 μM NA, 24 hours) was “decreased”, the “BMP4 mRNA levels” value (BMP4; 100 μM NA, 24 hr) was “decreased” and the “OPC maturation, PDGFRa, O4 and PLP staining” value ([1]; 20 μM NA, 24 hours) was “accelerated OPC maturation”. The “OPC maturation, PDGFa, O4 and PLP staining (figure legends)” value ([1]; 30 μM NA, 24 hours) was “induces more processes and greater a number of cells; also recorded: increased OPC maturation”, the “OPC maturation, MBP staining” value ([1]; E13 oligospheres, 25 μM NA, 2 days) was “accelerated OPC maturation” and the “BMP2 mRNA levels” value (BMP2) was “decreased”. The “Aβ induced damage in primary neurons” value (primary neurons) was “reduces Aβ induced damage”, the “accumulation of fluorescently tagged Aβ1-42 (intracellular Aβ uptake)” value (primary microglia) was “dose dependently increased” and the “NEP activity in cell culture” value (mouse neuronal N2A cells) was “increases NEP activity”. The “OPC maturation by Olig1, Olig2, GALc and CGT mRNA levels” value (P1 OPCs) was “increases OPC maturation”, the “Noggin protein expression (antibody staining)” value (Noggin; NA-treated primary astrocytes) was “increased Noggin expression” and the “Noggin mRNA levels” value (Noggin; primary astrocytes, 30 μM NA, 24 hours) was “increased”.
`CC(C)NCC(O)c1ccc(O)c(O)c1` (stereo not shown) [isoproterenol] was tested, and the “accumulation of fluorescently tagged Aβ1-42 (intracellular Aβ uptake)” value (primary microglia) was “dose dependently increased”.
With `N[C@H](C(=O)O)[C@H](O)c1ccc(O)c(O)c1` [L-DOPS, (−)-threo-3-(3,4-dihydroxyphenyl)-L-serine] the “clinical scores in EAE mice” value (EAE mice [2]; FIGS. 11A-11C) was “prevents the worsening of clinical scores”, the “ill mice whose scores improved during treatment” value (EAE mice [2]; L-DOPS group) was 2 of the 4 and the “incidence of disease during treatment” value (EAE mice [2]; L-DOPS group after day 29, saline all 6 ill by day 36) was “did not further increase”. The “mice ill on day 29” value (EAE mice [2]; L-DOPS group, first day of treatment) was 4/6, the “average clinical score, day 38” value (EAE mice [2]; daily L-DOPS 200 mg/kg s.c. plus 125 mg/kg bensazeride i.p. from day 29, saline 2.3±0.2 on day 37) was 1.2±0.4 and the “average clinical score, day 29” value (EAE mice [2]; first day of L-DOPS 200 mg/kg s.c. plus 125 mg/kg bensazeride i.p., mean±se) was 1.5±0.5. The “clinical scores / EAE symptoms” value (EAE mice [3]) was “Benefits to EAE were seen; also recorded: stabilized scores”.
`CNCC[C@@H](Oc1ccccc1C)c1ccccc1` [Atomoxetine] was tested, and the “clinical scores / EAE symptoms” value (EAE mice [3]) was “no effect on clinical scores” and the “clinical scores / EAE symptoms” value (EAE mice [3]; listed as Axtomoxtine) was “limited benefit”.
